Experiments:
[1] = system: Tyrosine-protein kinase ABL1 (Homo sapiens), P00519 [H396P]; conditions: Compound concentration 1000.0 nM
[2] = biological target: Tyrosine-protein kinase ABL2 (Homo sapiens) (UniProt P42684); conditions: Compound concentration 1000.0 nM
[3] = biological target: Death-associated protein kinase 1 (Homo sapiens) (UniProt P53355); conditions: Compound concentration 1000.0 nM
[4] = biological target: T1, Myotonin-protein kinase (Homo sapiens) (UniProt Q09013); conditions: Compound concentration 1000.0 nM
T1 sequence (whole entry): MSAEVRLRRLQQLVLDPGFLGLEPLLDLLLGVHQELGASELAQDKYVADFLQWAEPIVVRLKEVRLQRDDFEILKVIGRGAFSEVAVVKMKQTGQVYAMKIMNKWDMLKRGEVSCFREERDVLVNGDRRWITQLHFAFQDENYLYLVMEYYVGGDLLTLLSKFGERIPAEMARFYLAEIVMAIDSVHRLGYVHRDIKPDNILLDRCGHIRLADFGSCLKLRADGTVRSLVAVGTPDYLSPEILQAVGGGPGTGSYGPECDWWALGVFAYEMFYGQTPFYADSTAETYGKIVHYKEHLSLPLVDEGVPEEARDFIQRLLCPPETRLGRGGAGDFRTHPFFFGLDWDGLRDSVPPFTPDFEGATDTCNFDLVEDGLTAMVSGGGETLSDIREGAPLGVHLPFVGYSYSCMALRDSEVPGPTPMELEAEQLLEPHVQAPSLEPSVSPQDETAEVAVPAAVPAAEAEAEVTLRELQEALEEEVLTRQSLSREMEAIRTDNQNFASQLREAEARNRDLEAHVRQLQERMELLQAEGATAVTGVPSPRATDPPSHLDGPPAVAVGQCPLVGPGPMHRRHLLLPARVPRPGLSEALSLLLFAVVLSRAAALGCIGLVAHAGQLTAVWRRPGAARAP

[5] = system: Receptor-type tyrosine-protein kinase FLT3 (Homo sapiens), P36888 [R834Q]; conditions: Compound concentration 1000.0 nM
[6] = biological target: Vascular endothelial growth factor receptor 3 (Homo sapiens) (UniProt P35916); conditions: Compound concentration 1000.0 nM
[7] = biological target: T2, Rhodopsin kinase GRK7 (Homo sapiens) (UniProt Q8WTQ7); conditions: Compound concentration 1000.0 nM
T2 sequence (whole entry): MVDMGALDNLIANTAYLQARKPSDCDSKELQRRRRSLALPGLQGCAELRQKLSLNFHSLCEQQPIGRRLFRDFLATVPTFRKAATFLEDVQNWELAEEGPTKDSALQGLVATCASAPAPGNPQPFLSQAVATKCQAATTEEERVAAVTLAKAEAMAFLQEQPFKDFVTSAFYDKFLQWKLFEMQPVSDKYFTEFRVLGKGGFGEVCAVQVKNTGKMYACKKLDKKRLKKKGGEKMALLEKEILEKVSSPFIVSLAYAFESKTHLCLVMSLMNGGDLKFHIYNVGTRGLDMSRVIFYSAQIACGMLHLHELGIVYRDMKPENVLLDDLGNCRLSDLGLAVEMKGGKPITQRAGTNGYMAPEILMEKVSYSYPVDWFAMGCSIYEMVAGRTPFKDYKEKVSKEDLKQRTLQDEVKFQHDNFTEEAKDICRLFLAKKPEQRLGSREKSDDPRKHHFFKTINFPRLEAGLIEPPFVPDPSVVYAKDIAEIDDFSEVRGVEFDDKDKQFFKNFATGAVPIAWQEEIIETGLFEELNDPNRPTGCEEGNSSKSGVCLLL

[8] = biological target: Serine/threonine-protein kinase MAK (Homo sapiens) (UniProt P20794); conditions: Compound concentration 1000.0 nM
Chain of Serine/threonine-protein kinase MAK (Homo sapiens) (P20794 whole entry): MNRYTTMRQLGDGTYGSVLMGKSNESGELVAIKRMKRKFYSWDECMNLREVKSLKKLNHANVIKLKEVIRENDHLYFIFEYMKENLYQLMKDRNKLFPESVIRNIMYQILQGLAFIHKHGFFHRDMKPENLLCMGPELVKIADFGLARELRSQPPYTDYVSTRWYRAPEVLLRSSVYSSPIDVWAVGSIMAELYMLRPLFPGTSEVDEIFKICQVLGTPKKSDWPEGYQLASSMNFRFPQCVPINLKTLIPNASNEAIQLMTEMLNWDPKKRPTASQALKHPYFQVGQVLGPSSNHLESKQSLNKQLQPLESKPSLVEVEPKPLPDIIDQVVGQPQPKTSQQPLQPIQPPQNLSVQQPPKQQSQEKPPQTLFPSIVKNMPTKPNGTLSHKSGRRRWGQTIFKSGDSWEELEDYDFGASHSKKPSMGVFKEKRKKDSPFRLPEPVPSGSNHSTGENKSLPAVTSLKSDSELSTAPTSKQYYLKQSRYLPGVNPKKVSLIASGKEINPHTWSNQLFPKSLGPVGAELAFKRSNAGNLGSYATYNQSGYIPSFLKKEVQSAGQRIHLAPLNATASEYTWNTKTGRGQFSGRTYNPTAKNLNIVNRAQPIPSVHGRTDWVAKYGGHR

[9] = biological target: Mitogen-activated protein kinase kinase kinase 4 (Homo sapiens) (UniProt Q9Y6R4); conditions: Compound concentration 1000.0 nM
[10] = biological target: Platelet-derived growth factor receptor alpha (Homo sapiens) (UniProt P16234); conditions: Compound concentration 1000.0 nM
[11] = biological target: Receptor-interacting serine/threonine-protein kinase 4 (Homo sapiens) (UniProt P57078); conditions: Compound concentration 1000.0 nM
Chain of Receptor-interacting serine/threonine-protein kinase 4 (Homo sapiens) (P57078 whole entry): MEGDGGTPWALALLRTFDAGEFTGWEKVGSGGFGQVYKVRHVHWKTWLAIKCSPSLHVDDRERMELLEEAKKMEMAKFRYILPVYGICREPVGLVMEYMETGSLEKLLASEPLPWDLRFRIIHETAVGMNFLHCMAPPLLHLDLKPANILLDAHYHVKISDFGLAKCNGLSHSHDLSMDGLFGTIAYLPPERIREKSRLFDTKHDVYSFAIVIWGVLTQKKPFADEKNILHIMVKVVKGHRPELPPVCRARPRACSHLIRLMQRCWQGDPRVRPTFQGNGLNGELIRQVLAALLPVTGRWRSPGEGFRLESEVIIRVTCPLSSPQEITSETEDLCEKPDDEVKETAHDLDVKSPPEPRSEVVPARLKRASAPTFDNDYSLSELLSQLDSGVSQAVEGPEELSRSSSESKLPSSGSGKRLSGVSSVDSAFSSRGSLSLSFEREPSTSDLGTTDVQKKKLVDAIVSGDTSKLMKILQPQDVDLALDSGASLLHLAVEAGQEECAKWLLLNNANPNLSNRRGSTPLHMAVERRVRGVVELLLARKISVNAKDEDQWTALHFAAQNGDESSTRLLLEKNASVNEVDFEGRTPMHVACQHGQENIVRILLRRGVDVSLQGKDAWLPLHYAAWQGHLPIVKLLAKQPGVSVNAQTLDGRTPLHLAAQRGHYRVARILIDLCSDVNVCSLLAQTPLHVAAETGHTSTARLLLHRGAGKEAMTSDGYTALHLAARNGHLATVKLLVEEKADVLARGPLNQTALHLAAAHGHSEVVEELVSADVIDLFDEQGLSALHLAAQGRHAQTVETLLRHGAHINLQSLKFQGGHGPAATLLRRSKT

[12] = biological target: STE20-like serine/threonine-protein kinase (Homo sapiens) (UniProt Q9H2G2); conditions: Compound concentration 1000.0 nM
[13] = biological target: SNF-related serine/threonine-protein kinase (Homo sapiens) (UniProt Q9NRH2); conditions: Compound concentration 1000.0 nM
Chain of SNF-related serine/threonine-protein kinase (Homo sapiens) (Q9NRH2 whole entry): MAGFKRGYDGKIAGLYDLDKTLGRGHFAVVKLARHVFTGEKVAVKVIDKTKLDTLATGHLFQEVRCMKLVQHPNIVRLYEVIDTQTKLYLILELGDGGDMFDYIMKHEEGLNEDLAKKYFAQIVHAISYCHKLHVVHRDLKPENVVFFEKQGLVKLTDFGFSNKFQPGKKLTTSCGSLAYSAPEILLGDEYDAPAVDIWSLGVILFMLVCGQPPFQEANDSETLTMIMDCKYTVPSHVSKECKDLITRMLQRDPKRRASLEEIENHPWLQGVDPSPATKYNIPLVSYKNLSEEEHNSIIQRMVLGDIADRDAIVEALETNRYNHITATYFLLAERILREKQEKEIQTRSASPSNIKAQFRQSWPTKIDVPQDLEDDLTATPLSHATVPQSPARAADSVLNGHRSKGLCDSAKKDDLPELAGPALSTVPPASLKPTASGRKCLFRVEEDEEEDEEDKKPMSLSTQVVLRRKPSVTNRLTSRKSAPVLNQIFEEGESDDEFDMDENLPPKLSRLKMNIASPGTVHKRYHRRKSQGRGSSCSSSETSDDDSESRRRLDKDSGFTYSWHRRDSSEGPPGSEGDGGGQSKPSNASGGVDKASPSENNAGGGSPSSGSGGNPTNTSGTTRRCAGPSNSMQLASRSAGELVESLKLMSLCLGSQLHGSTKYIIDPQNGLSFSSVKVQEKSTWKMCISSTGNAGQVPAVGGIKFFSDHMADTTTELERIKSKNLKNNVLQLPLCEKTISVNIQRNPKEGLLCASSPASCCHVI

[14] = biological target: Non-receptor tyrosine-protein kinase TNK1 (Homo sapiens) (UniProt Q13470); conditions: Compound concentration 1000.0 nM
Chain of Non-receptor tyrosine-protein kinase TNK1 (Homo sapiens) (Q13470 whole entry): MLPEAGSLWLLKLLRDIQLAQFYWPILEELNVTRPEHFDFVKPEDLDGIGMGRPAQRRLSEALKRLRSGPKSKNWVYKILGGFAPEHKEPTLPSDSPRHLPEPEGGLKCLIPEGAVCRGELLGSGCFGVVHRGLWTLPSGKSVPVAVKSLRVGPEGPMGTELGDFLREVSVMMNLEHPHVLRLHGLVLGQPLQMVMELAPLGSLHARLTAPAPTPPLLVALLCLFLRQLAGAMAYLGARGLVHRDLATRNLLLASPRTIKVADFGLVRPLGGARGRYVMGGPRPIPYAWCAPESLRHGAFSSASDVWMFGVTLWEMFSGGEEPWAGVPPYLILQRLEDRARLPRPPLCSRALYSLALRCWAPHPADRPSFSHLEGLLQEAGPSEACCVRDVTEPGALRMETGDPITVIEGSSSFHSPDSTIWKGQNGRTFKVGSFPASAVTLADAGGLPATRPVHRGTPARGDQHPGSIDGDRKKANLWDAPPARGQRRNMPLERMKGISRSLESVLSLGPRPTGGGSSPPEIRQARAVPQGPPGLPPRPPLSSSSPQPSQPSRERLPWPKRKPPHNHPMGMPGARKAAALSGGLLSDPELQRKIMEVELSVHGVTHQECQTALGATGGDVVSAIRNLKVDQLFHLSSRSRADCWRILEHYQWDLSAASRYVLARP

[15] = biological target: D(2) dopamine receptor (Homo sapiens) (UniProt P14416); conditions: Compound concentration 10.0 uM
Chain of D(2) dopamine receptor (Homo sapiens) (P14416 whole entry): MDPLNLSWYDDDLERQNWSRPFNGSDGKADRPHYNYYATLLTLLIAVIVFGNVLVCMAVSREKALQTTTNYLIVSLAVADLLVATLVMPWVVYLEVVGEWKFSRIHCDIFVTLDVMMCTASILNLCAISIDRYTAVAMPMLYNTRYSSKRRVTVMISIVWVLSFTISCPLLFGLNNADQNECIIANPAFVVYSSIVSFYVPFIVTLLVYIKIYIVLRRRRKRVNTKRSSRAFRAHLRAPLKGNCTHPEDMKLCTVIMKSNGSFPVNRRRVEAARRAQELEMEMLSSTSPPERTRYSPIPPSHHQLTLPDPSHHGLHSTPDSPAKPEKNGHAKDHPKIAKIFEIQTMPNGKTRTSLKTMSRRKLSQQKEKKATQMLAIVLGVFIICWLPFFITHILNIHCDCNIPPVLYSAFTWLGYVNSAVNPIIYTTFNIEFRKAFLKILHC

[16] = biological target: Histamine H4 receptor (Homo sapiens) (UniProt Q9H3N8); conditions: Compound concentration 10.0 uM
Chain of Histamine H4 receptor (Homo sapiens) (Q9H3N8 whole entry): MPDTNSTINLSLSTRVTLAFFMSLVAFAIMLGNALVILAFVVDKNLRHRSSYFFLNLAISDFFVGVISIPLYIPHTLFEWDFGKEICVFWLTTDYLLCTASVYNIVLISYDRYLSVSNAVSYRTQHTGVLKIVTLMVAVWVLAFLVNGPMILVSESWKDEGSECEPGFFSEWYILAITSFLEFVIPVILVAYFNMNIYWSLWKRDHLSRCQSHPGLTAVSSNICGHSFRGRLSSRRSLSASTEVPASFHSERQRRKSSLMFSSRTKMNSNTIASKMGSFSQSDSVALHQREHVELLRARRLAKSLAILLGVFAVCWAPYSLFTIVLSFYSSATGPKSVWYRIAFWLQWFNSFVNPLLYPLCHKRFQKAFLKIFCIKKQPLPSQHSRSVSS

Rattus norvegicus = organism: Rattus norvegicus; conditions: Compound concentration 10.0 uM

Chain of Tyrosine-protein kinase ABL2 (Homo sapiens) (P42684 whole entry): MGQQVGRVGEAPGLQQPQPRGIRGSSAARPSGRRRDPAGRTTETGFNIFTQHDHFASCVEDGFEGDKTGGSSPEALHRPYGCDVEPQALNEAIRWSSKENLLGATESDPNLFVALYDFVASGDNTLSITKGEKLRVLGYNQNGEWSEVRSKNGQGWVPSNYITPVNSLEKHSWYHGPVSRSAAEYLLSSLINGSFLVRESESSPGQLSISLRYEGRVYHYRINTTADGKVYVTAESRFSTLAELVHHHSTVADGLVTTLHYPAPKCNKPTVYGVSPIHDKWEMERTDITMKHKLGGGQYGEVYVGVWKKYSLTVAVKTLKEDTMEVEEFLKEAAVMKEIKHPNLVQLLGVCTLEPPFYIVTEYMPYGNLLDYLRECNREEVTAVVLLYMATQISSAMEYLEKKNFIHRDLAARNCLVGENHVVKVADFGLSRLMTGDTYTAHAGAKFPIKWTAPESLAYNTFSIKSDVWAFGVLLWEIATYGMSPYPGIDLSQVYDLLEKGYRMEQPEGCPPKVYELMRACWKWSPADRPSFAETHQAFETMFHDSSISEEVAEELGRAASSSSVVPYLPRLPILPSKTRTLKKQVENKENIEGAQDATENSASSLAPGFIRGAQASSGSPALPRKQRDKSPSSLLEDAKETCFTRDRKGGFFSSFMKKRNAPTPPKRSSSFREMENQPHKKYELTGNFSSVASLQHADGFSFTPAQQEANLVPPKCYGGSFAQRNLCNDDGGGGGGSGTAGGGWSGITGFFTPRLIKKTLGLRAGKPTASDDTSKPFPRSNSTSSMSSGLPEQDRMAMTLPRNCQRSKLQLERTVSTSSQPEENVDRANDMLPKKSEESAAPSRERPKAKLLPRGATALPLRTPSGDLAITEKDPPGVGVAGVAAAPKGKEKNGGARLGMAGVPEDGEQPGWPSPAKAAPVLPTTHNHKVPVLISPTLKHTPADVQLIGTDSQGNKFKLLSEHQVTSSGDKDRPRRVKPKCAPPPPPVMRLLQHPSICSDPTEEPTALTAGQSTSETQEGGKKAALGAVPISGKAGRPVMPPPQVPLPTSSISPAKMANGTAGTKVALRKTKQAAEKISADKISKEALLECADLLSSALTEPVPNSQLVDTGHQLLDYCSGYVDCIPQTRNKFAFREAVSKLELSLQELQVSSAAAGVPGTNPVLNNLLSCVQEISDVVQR

SMILES	residual activity [1] [%]	residual activity [2] [%]	residual activity [3] [%]	residual activity [4] [%]	residual activity [5] [%]	residual activity [6] [%]	residual activity [7] [%]	residual activity [8] [%]	residual activity [9] [%]	residual activity [10] [%]	residual activity [11] [%]	residual activity [12] [%]	residual activity [13] [%]	residual activity [14] [%]	inhibition [15] [%]	inhibition [16] [%]	inhibition (Rattus norvegicus) [%]
CN(C)C(=O)Cn1cc(-c2nc(C3(c4ccc(-c5cnc(N)nc5)cc4)CC3)no2)cn1 [BI 0153]	100	84	100	82	90	95	84	87	92	83	70	77	100	96	16.1	36.6	7.97
CN(C)C(=O)Cn1cc(-c2nc([C@@](C)(c3ccc(-c4cnc(N)nc4)cc3)C3CC3)no2)cn1 [BI 665915]	80	100	82	100	87	88	0	100	91	100	93	94	89	100	13.6	55.2	1.51
